Assay results reported in patent publication US11390604B2 (Hoffmann-La Roche Inc., priority 2019, dated 2022).
Structures can show the parent of a compound that is named as a salt.

What follows are molecules tested on Acinetobacter baumannii ATCC 17961 (assay: Antimicrobial susceptibility testing: 90% growth inhibitory concentration (IC90) determination). Conditions: ATCC17961, Acinetobacter baumannii ATCC 17961, Iso-Sensitest broth, read-out: ATCC 17961 IC90.
Assay type: cell-based
Method in brief: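 Growth was followed kinetically by OD600 at 20-min intervals for 16 h at 35±2 °C, with ~5×10^5 CFU/ml in Iso-Sensitest broth. Compounds were tested as twofold dilutions (e.g. 50–0.097 μM final). The concentration giving 90% inhibition of log-phase growth was reported.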

Question: Which IC90 does the source give for `Cn1c(-c2cn(CCC(F)(F)F)nc2C(F)(F)F)cnc1C(=O)Nc1ccc(C(=O)N2CCN(C(=O)C3CCNCC3)CC2)c(Cl)c1` [Example 98, N-[3-chloro-4-[4-(piperidine-4-carbonyl)piperazine-1-carbonyl]phenyl]-1-methyl-5-[3-(trifluoromethyl)-1-(3,3,3-trifluoropropyl)pyrazol-4-yl]imidazole-2-carboxamide;hydrochloride] here?
Answer: The IC90 was 362 nM.

Question: `Cn1c(-c2cn(CF)nc2C(F)(F)F)cnc1C(=O)Nc1ccc(C(=O)N2CCN(C(=O)C3CCNCC3)CC2)c(Cl)c1` [Example 99, N-[3-chloro-4-[4-(piperidine-4-carbonyl)piperazine-1-carbonyl]phenyl]-5-[1-(fluoromethyl)-3-(trifluoromethyl)pyrazol-4-yl]-1-methylimidazole-2-carboxamide;hydrochloride] was tested. Which IC90 did it give?
Answer: Its IC90 is 403 nM.

Question: For `Cn1c(-c2cn(Cc3ccn[nH]3)nc2C(F)(F)F)cnc1C(=O)Nc1ccc(C(=O)N2CCN(C(=O)C3CCNCC3)CC2)c(Cl)c1` [Example 100, N-[3-chloro-4-[4-(piperidine-4-carbonyl)piperazine-1-carbonyl]phenyl]-1-methyl-5-[1-(1H-pyrazol-5-ylmethyl)-3-(trifluoromethyl)pyrazol-4-yl]imidazole-2-carboxamide], which IC90 is on record?
Answer: Its IC90 is 1030 nM.

Question: `Cn1c(-c2cn(CC(C)(CO)CCl)nc2C(F)(F)F)cnc1C(=O)Nc1ccc(C(=O)N2CCN(C(=O)C3CCNCC3)CC2)c(Cl)c1` (stereo not shown) [Example 101, 5-[1-[2-(chloromethyl)-3-hydroxy-2-methylpropyl]-3-(trifluoromethyl)pyrazol-4-yl]-N-[3-chloro-4-[4-(piperidine-4-carbonyl)piperazine-1-carbonyl]phenyl]-1-methylimidazole-2-carboxamide;formic acid] was tested. Which IC90 did it give?
Answer: The IC90 was 733 nM.

Question: With `CC(C)n1cc(-c2cnc(C(=O)Nc3ccc(C(=O)N4CCN(C(=O)C5CCNCC5)CC4)c(Cl)c3)n2C)c(C(F)(F)F)n1` [Example 102, N-[3-chloro-4-[4-(piperidine-4-carbonyl)piperazine-1-carbonyl]phenyl]-1-methyl-5-[1-propan-2-yl-3-(trifluoromethyl)pyrazol-4-yl]imidazole-2-carboxamide;hydrochloride] as the molecule, how does the IC90 read?
Answer: Its IC90 is 448 nM.

Question: Which IC90 does the source give for `Cn1c(-c2cn(C(CO)CCl)nc2C(F)(F)F)cnc1C(=O)Nc1ccc(C(=O)N2CCN(C(=O)C3CCNCC3)CC2)c(Cl)c1` (stereo not shown) [Example 103, 5-[1-(1-chloro-3-hydroxypropan-2-yl)-3-(trifluoromethyl)pyrazol-4-yl]-N-[3-chloro-4-[4-(piperidine-4-carbonyl)piperazine-1-carbonyl]phenyl]-1-methylimidazole-2-carboxamide;hydrochloride] here?
Answer: The IC90 was 678 nM.

Question: `Cn1c(-c2cn(CCC(C)(C)O)nc2C(F)(F)F)cnc1C(=O)Nc1ccc(C(=O)N2CCN(C(=O)C3CCNCC3)CC2)c(Cl)c1` [Example 104, N-[3-chloro-4-[4-(piperidine-4-carbonyl)piperazine-1-carbonyl]phenyl]-5-[1-(3-hydroxy-3-methylbutyl)-3-(trifluoromethyl)pyrazol-4-yl]-1-methylimidazole-2-carboxamide;hydrochloride] was tested. Which IC90 did it give?
Answer: The IC90 was 1020 nM.

Question: For `Cn1c(-c2cn(CC3(CO)CC(C)(Cl)C3)nc2C(F)(F)F)cnc1C(=O)Nc1ccc(C(=O)N2CCN(C(=O)C3CCNCC3)CC2)c(Cl)c1` (stereo not shown) [Example 105, 5-[1-[[3-chloro-1-(hydroxymethyl)-3-methylcyclobutyl]methyl]-3-(trifluoromethyl)pyrazol-4-yl]-N-[3-chloro-4-[4-(piperidine-4-carbonyl)piperazine-1-carbonyl]phenyl]-1-methylimidazole-2-carboxamide;hydrochloride], which IC90 is on record?
Answer: The IC90 was 1610 nM.

Question: Which IC90 does the source give for `Cc1nc(Cn2cc(-c3cnc(C(=O)Nc4ccc(C(=O)N5CCN(C(=O)C6CCNCC6)CC5)c(Cl)c4)n3C)c(C(F)(F)F)n2)no1` [Example 106, N-[3-chloro-4-[4-(piperidine-4-carbonyl)piperazine-1-carbonyl]phenyl]-1-methyl-5-[1-[(5-methyl-1,2,4-oxadiazol-3-yl)methyl]-3-(trifluoromethyl)pyrazol-4-yl]imidazole-2-carboxamide;hydrochloride] here?
Answer: The IC90 was 848 nM.

Question: Which IC90 does the source give for `Cn1c(-c2cn(CC3(C)CSC3)nc2C(F)(F)F)cnc1C(=O)Nc1ccc(C(=O)N2CCN(C(=O)C3CCNCC3)CC2)c(Cl)c1` [Example 107, N-[3-chloro-4-[4-(piperidine-4-carbonyl)piperazine-1-carbonyl]phenyl]-1-methyl-5-[1-[(3-methylthietan-3-yl)methyl]-3-(trifluoromethyl)pyrazol-4-yl]imidazole-2-carboxamide;hydrochloride] here?
Answer: Its IC90 is 444 nM.

Question: Which IC90 does the source give for `Cn1c(-c2cn(C3CC4(CC4)C3)nc2C(F)(F)F)cnc1C(=O)Nc1ccc(C(=O)N2CCN(C(=O)C3CCNCC3)CC2)c(Cl)c1` [Example 108, N-[3-chloro-4-[4-(piperidine-4-carbonyl)piperazine-1-carbonyl]phenyl]-1-methyl-5-[1-spiro[2.3]hexan-5-yl-3-(trifluoromethyl)pyrazol-4-yl]imidazole-2-carboxamide;hydrochloride] here?
Answer: The IC90 was 248 nM.

Question: How did the IC90 turn out when `Cn1c(-c2cn(CCOC(F)F)nc2C(F)(F)F)cnc1C(=O)Nc1ccc(C(=O)N2CCN(C(=O)C3CCNCC3)CC2)c(Cl)c1` [Example 109, N-[3-chloro-4-[4-(piperidine-4-carbonyl)piperazine-1-carbonyl]phenyl]-5-[1-[2-(difluoromethoxy)ethyl]-3-(trifluoromethyl)pyrazol-4-yl]-1-methylimidazole-2-carboxamide;hydrochloride] was run?
Answer: The IC90 was 473 nM.

Question: Which IC90 does the source give for `Cn1c(-c2cn(CC3CC3(F)F)nc2C(F)(F)F)cnc1C(=O)Nc1ccc(C(=O)N2CCN(C(=O)C3CCNCC3)CC2)c(Cl)c1` (stereo not shown) [Example 110, N-[3-chloro-4-[4-(piperidine-4-carbonyl)piperazine-1-carbonyl]phenyl]-5-[1-[(2,2-difluorocyclopropyl)methyl]-3-(trifluoromethyl)pyrazol-4-yl]-1-methylimidazole-2-carboxamide;hydrochloride] here?
Answer: Its IC90 is 260 nM.

Question: How did the IC90 turn out when `Cn1c(-c2cn(CC3CC(F)(F)C3)nc2C(F)(F)F)cnc1C(=O)Nc1ccc(C(=O)N2CCN(C(=O)C3CCNCC3)CC2)c(Cl)c1` [Example 111, N-[3-chloro-4-[4-(piperidine-4-carbonyl)piperazine-1-carbonyl]phenyl]-5-[1-[(3,3-difluorocyclobutyl)methyl]-3-(trifluoromethyl)pyrazol-4-yl]-1-methylimidazole-2-carboxamide;hydrochloride] was run?
Answer: The IC90 was 344 nM.

Question: For `Cn1c(-c2cn(CC3CC3)nc2C(F)(F)F)cnc1C(=O)Nc1ccc(C(=O)N2CCN(C(=O)C3CCNCC3)CC2)c(Cl)c1` [Example 112, N-[3-chloro-4-[4-(piperidine-4-carbonyl)piperazine-1-carbonyl]phenyl]-5-[1-(cyclopropylmethyl)-3-(trifluoromethyl)pyrazol-4-yl]-1-methylimidazole-2-carboxamide;hydrochloride], which IC90 is on record?
Answer: The IC90 was 274 nM.

Question: With `Cn1c(-c2cn(CC3CCC3)nc2C(F)(F)F)cnc1C(=O)Nc1ccc(C(=O)N2CCN(C(=O)C3CCNCC3)CC2)c(Cl)c1` [Example 113, N-[3-chloro-4-[4-(piperidine-4-carbonyl)piperazine-1-carbonyl]phenyl]-5-[1-(cyclobutylmethyl)-3-(trifluoromethyl)pyrazol-4-yl]-1-methylimidazole-2-carboxamide;hydrochloride] as the molecule, how does the IC90 read?
Answer: Its IC90 is 187 nM.

Question: How did the IC90 turn out when `CCn1cc(-c2cnc(C(=O)Nc3ccc(C(=O)N4CCN(C(=O)C5CCNCC5)CC4)c(Cl)c3)n2C)c(C(F)(F)F)n1` [Example 114, N-[3-chloro-4-[4-(piperidine-4-carbonyl)piperazine-1-carbonyl]phenyl]-5-[1-ethyl-3-(trifluoromethyl)pyrazol-4-yl]-1-methylimidazole-2-carboxamide;hydrochloride] was run?
Answer: Its IC90 is 339 nM.

Question: With `Cn1cc(-c2cnc(C(=O)Nc3ccc(C(=O)N4CCN(C(=O)C5CCNCC5)CC4)c(Cl)c3)n2C)c(C(F)(F)F)n1` [Example 115, N-[3-chloro-4-[4-(piperidine-4-carbonyl)piperazine-1-carbonyl]phenyl]-1-methyl-5-[1-methyl-3-(trifluoromethyl)pyrazol-4-yl]imidazole-2-carboxamide;hydrochloride] as the molecule, how does the IC90 read?
Answer: The IC90 was 1250 nM.

Question: How did the IC90 turn out when `Cn1c(-c2cn(C(F)F)nc2C(F)(F)F)cnc1C(=O)Nc1ccc(C(=O)N2CCN(C(=O)C3CCNCC3)CC2)c(Cl)c1` [Example 116, N-[3-chloro-4-[4-(piperidine-4-carbonyl)piperazine-1-carbonyl]phenyl]-5-[1-(difluoromethyl)-3-(trifluoromethyl)pyrazol-4-yl]-1-methylimidazole-2-carboxamide;hydrochloride] was run?
Answer: The IC90 was 487 nM.

Question: `CC(C#N)n1cc(-c2cnc(C(=O)Nc3ccc(C(=O)N4CCN(C(=O)C5CCNCC5)CC4)c(Cl)c3)n2C)c(C(F)(F)F)n1` (stereo not shown) [Example 117, N-[3-chloro-4-[4-(piperidine-4-carbonyl)piperazine-1-carbonyl]phenyl]-5-[1-(1-cyanoethyl)-3-(trifluoromethyl)pyrazol-4-yl]-1-methylimidazole-2-carboxamide;formic acid] was tested. Which IC90 did it give?
Answer: The IC90 was 427 nM.

Question: With `Cc1cc(NC(=O)c2ncc(-c3cn(CC#N)nc3C(F)(F)F)n2C)cc(F)c1C(=O)N1CCN(C(=O)[C@H]2C[C@H](N)C2)CC1` [Example 118, N-[4-[4-(3-aminocyclobutanecarbonyl)piperazine-1-carbonyl]-3-fluoro-5-methylphenyl]-5-[1-(cyanomethyl)-3-(trifluoromethyl)pyrazol-4-yl]-1-methylimidazole-2-carboxamide] as the molecule, how does the IC90 read?
Answer: The IC90 was 884 nM.

Question: Which IC90 does the source give for `Cc1cc(NC(=O)c2ncc(-c3cn(CC#N)nc3C(F)(F)F)n2C)cc(F)c1C(=O)N1CCN(C(=O)[C@H]2CC[C@@H](N)C2)CC1` [Example 119, N-[4-[4-[(1S,3R)-3-aminocyclopentanecarbonyl]piperazine-1-carbonyl]-3-fluoro-5-methylphenyl]-5-[1-(cyanomethyl)-3-(trifluoromethyl)pyrazol-4-yl]-1-methylimidazole-2-carboxamide] here?
Answer: The IC90 was 769 nM.
